In publication PMC12703741, “Light-Activated Metal-Dependent Protein Degradation: A Heterobifunctional Ruthenium(II) Photosensitizer Targeting New Delhi Metallo-β-lactamase 1” (Journal of the American Chemical Society, 2025):
Read-outs that look alike come from different tables or passages of the source.

Assays:
[1] = archetypal comparison complex; cited from earlier work
[2] = design: method as in earlier work; conditions: reference for 1O2 sensitization; ref 4 (SI), Tanielian et al., 1996; cited from earlier work
NDM-1 [3] = target: T1, NDM-1 (Klebsiella pneumoniae, UniProt C7C422); conditions: read-out: Km(Nitrocefin); NDM-1 2 nM, 25 °C
Excerpt: (4 pictures or pasted objects on this page, not shown here)

NDM-1 [4] = target: T1, NDM-1; conditions: read-out: Km(Nitrocefin); previously reported; ref 5 (SI); cited from earlier work

T1 sequence (C7C422 31-270 limits assumed): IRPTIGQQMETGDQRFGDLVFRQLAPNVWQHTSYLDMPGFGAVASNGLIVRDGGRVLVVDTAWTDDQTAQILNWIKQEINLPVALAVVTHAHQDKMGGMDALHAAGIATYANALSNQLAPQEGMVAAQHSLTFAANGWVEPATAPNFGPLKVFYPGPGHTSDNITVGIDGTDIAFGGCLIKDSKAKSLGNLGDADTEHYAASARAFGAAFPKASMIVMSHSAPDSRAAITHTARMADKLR

| SMILES | Luminescence lifetime of excited state [1] | 1O2 quantum yield (ΦΔ) [2] | Km (NDM-1 [3]) | Km (NDM-1 [4]) |
| --- | --- | --- | --- | --- |
| [Cl][Ru][Cl].c1ccc(-c2ccccn2)nc1.c1ccc(-c2ccccn2)nc1.c1ccc(-c2ccccn2)nc1 [[Ru(bpy)3]Cl2, tris(2,2’-bipyridyl)ruthenium(II) dichloride] | 510 ns | 0.87 |  |  |
| O=C(Cc1cccs1)N[C@@H]1C(=O)N2C(C(=O)O)=C(/C=C/c3ccc([N+](=O)[O-])cc3[N+](=O)[O-])CS[C@H]12 [nitrocefin] |  |  | 3.1 ± 0.5 µM | 3.2 µM |
